Reference: PubChem BioAssay (NCI)
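Interpolation was linear, between the two tested concentrations surrounding the appropriate level; five concentrations were tested over 48 hours in 96-well plates. The concentration for full growth arrest is given as TGI.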

Assays:
Experiment in all cases: NCI tumour cell line growth inhibition, 48 h
A498 renal = tested on: A498 renal
A549 NSCLC = tested on: A549 NSCLC
CAKI-1 renal = tested on: CAKI-1 renal
CCRF-CEM leukemia = tested on: CCRF-CEM leukemia
COLO 205 colon = tested on: COLO 205 colon
DLD-1 colon = tested on: DLD-1 colon
DMS 114 small cell lung = tested on: DMS 114 small cell lung
DMS 273 small cell lung = tested on: DMS 273 small cell lung
EKVX NSCLC = tested on: EKVX NSCLC
HCC-2998 colon = tested on: HCC-2998 colon
HCT-116 colon = tested on: HCT-116 colon
HCT-15 colon = tested on: HCT-15 colon
HL-60(TB) leukemia = tested on: HL-60(TB) leukemia
HOP-18 NSCLC = tested on: HOP-18 NSCLC
HOP-62 NSCLC = tested on: HOP-62 NSCLC
HOP-92 NSCLC = tested on: HOP-92 NSCLC
HT29 colon = tested on: HT29 colon
IGROV1 ovarian = tested on: IGROV1 ovarian
K-562 leukemia = tested on: K-562 leukemia
KM12 colon = tested on: KM12 colon
KM20L2 colon = tested on: KM20L2 colon
LOX IMVI melanoma = tested on: LOX IMVI melanoma
M19-MEL melanoma = tested on: M19-MEL melanoma
MALME-3M melanoma = tested on: MALME-3M melanoma
MCF7 breast = tested on: MCF7 breast
MOLT-4 leukemia = tested on: MOLT-4 leukemia
NCI-H226 lung = tested on: NCI-H226 lung
NCI-H23 lung = tested on: NCI-H23 lung
NCI-H460 lung = tested on: NCI-H460 lung
NCI-H522 lung = tested on: NCI-H522 lung
NCI/ADR-RES ovarian = tested on: NCI/ADR-RES ovarian
OVCAR-3 ovarian = tested on: OVCAR-3 ovarian
OVCAR-4 ovarian = tested on: OVCAR-4 ovarian
OVCAR-5 ovarian = tested on: OVCAR-5 ovarian
OVCAR-8 ovarian = tested on: OVCAR-8 ovarian
P388 leukemia = tested on: P388 leukemia
P388/ADR leukemia = tested on: P388/ADR leukemia
RPMI-8226 leukemia = tested on: RPMI-8226 leukemia
RXF 393 renal = tested on: RXF 393 renal
SF-268 CNS = tested on: SF-268 CNS
SF-295 CNS = tested on: SF-295 CNS
SF-539 CNS = tested on: SF-539 CNS
SK-MEL-2 melanoma = tested on: SK-MEL-2 melanoma
SK-MEL-28 melanoma = tested on: SK-MEL-28 melanoma
SK-MEL-5 melanoma = tested on: SK-MEL-5 melanoma
SK-OV-3 ovarian = tested on: SK-OV-3 ovarian
SN12C renal = tested on: SN12C renal
SN12K1 renal = tested on: SN12K1 renal
SNB-19 CNS = tested on: SNB-19 CNS
SNB-75 CNS = tested on: SNB-75 CNS
SNB-78 CNS = tested on: SNB-78 CNS
SW-620 colon = tested on: SW-620 colon
U251 CNS = tested on: U251 CNS
UACC-257 melanoma = tested on: UACC-257 melanoma
UACC-62 melanoma = tested on: UACC-62 melanoma
UO-31 renal = tested on: UO-31 renal
XF 498 CNS = tested on: XF 498 CNS

For `CCCCc1[nH]ccc2c(C)c3nc4ccccc4c3cc12`, the TGI (A498 renal) was 13.4 µM, the TGI (A549 NSCLC) was 14.1 µM and the TGI (CAKI-1 renal) was 6.33 µM. The TGI (CCRF-CEM leukemia) was 10.6 µM, the TGI (COLO 205 colon) was 3.39 µM and the TGI (DLD-1 colon) was 13.3 µM. The TGI (DMS 114 small cell lung) was 4.14 µM, the TGI (DMS 273 small cell lung) was 2.4 µM and the TGI (EKVX NSCLC) was 13.6 µM. The TGI (HCC-2998 colon) was 8.19 µM, the TGI (HCT-116 colon) was 4.76 µM and the TGI (HCT-15 colon) was 8.49 µM. The TGI (HL-60(TB) leukemia) was 3.45 µM, the TGI (HOP-18 NSCLC) was 6.83 µM and the TGI (HOP-62 NSCLC) was 14.5 µM. It also gave a TGI (HOP-92 NSCLC) of 12.4 µM, a TGI (HT29 colon) of 8.85 µM and a TGI (IGROV1 ovarian) of 16.9 µM. It also gave a TGI (K-562 leukemia) of 5.98 µM, a TGI (KM12 colon) of 12.7 µM and a TGI (KM20L2 colon) of 10.8 µM. It also gave a TGI (LOX IMVI melanoma) of 4.3 µM, a TGI (M19-MEL melanoma) of 10.9 µM and a TGI (MALME-3M melanoma) of 14.5 µM. The TGI (MCF7 breast) was 10.8 µM, the TGI (MOLT-4 leukemia) was 4.72 µM and the TGI (NCI-H226 lung) was 24.6 µM. For the same molecule, the TGI (NCI-H23 lung) was 16 µM, the TGI (NCI-H460 lung) was 5.03 µM and the TGI (NCI-H522 lung) was 6.75 µM. It also gave a TGI (NCI/ADR-RES ovarian) of 5.87 µM, a TGI (OVCAR-3 ovarian) of 10.8 µM and a TGI (OVCAR-4 ovarian) of 13.5 µM. It also gave a TGI (OVCAR-5 ovarian) of 17.2 µM, a TGI (OVCAR-8 ovarian) of 9.49 µM and a TGI (P388 leukemia) of 4.13 µM. It also gave a TGI (P388/ADR leukemia) of 7.29 µM, a TGI (RPMI-8226 leukemia) of 6.77 µM and a TGI (RXF 393 renal) of 7.61 µM. For the same molecule, the TGI (SF-268 CNS) was 21.6 µM, the TGI (SF-295 CNS) was 8.41 µM and the TGI (SF-539 CNS) was 7.45 µM. It also gave a TGI (SK-MEL-2 melanoma) of 11.4 µM, a TGI (SK-MEL-28 melanoma) of 11.8 µM and a TGI (SK-MEL-5 melanoma) of 6.52 µM. For the same molecule, the TGI (SK-OV-3 ovarian) was 16.8 µM, the TGI (SN12C renal) was 19.4 µM and the TGI (SN12K1 renal) was 5.75 µM. For the same molecule, the TGI (SNB-19 CNS) was 11.6 µM, the TGI (SNB-75 CNS) was 15.8 µM and the TGI (SNB-78 CNS) was 21.3 µM. For the same molecule, the TGI (SW-620 colon) was 6.78 µM, the TGI (U251 CNS) was 12.8 µM and the TGI (UACC-257 melanoma) was 5.13 µM. It also gave a TGI (UACC-62 melanoma) of 8.75 µM and a TGI (UO-31 renal) of 10.9 µM.

`C=C1CC(OC)(C(OC)C(=O)N(C)[C@H]2OCO[C@H]3C2O[C@H](C[C@@H](COC)OC)C(C)(C)C3OC)O[C@H](C)[C@@H]1C` (stereo not given in full) gave a TGI (A498 renal) of 28.8 µM, a TGI (A549 NSCLC) of over 91.7 µM and a TGI (CAKI-1 renal) of 28.5 µM. It also gave a TGI (CCRF-CEM leukemia) of 37.7 µM, a TGI (COLO 205 colon) of 20.9 µM and a TGI (DLD-1 colon) of 70.4 µM. For the same molecule, the TGI (DMS 114 small cell lung) was 34.9 µM, the TGI (DMS 273 small cell lung) was 29 µM and the TGI (EKVX NSCLC) was 60.7 µM. It also gave a TGI (HCC-2998 colon) of 31.6 µM, a TGI (HCT-116 colon) of 30.6 µM and a TGI (HCT-15 colon) of 87.3 µM. The TGI (HL-60(TB) leukemia) was 39.6 µM, the TGI (HOP-18 NSCLC) was 71.2 µM and the TGI (HOP-62 NSCLC) was over 91.7 µM. For the same molecule, the TGI (HT29 colon) was 29 µM, the TGI (IGROV1 ovarian) was 32.5 µM and the TGI (K-562 leukemia) was 40.9 µM. The TGI (KM12 colon) was 25.9 µM, the TGI (KM20L2 colon) was 36.8 µM and the TGI (LOX IMVI melanoma) was 26.5 µM. It also gave a TGI (MCF7 breast) of 28.8 µM, a TGI (MOLT-4 leukemia) of 36 µM and a TGI (NCI-H226 lung) of 23.9 µM. The TGI (NCI-H23 lung) was 34.7 µM, the TGI (NCI-H460 lung) was 64.5 µM and the TGI (NCI-H522 lung) was 29.9 µM. For the same molecule, the TGI (NCI/ADR-RES ovarian) was 41.2 µM, the TGI (OVCAR-3 ovarian) was 37.8 µM and the TGI (OVCAR-4 ovarian) was 22.2 µM. It also gave a TGI (OVCAR-5 ovarian) of 69.2 µM, a TGI (OVCAR-8 ovarian) of over 91.7 µM and a TGI (P388 leukemia) of 18.2 µM. The TGI (P388/ADR leukemia) was 38.8 µM, the TGI (RPMI-8226 leukemia) was 53.2 µM and the TGI (RXF 393 renal) was 24.8 µM. It also gave a TGI (SF-268 CNS) of 30.2 µM, a TGI (SF-295 CNS) of 30 µM and a TGI (SF-539 CNS) of 42.8 µM. The TGI (SK-MEL-28 melanoma) was 40.6 µM, the TGI (SK-MEL-5 melanoma) was over 9.17 µM and the TGI (SN12C renal) was 86.6 µM. For the same molecule, the TGI (SN12K1 renal) was 38.6 µM, the TGI (SNB-19 CNS) was 46.8 µM and the TGI (SNB-75 CNS) was 24.7 µM. It also gave a TGI (SNB-78 CNS) of 43.5 µM, a TGI (SW-620 colon) of over 91.7 µM and a TGI (U251 CNS) of 54.4 µM. It also gave a TGI (UACC-257 melanoma) of 30.3 µM, a TGI (UACC-62 melanoma) of 33.1 µM and a TGI (UO-31 renal) of 49.1 µM. It also gave a TGI (XF 498 CNS) of 40.1 µM.

`O=C1NC(c2cccc3ccccc23)Nc2ccc(O)cc21` (stereo not given) showed a TGI (A498 renal) of 75.3 µM, a TGI (A549 NSCLC) of over 139 µM and a TGI (CAKI-1 renal) of over 144 µM. For the same molecule, the TGI (CCRF-CEM leukemia) was 111 µM, the TGI (COLO 205 colon) was 67.4 µM and the TGI (DLD-1 colon) was 134 µM. The TGI (DMS 114 small cell lung) was 67.1 µM, the TGI (DMS 273 small cell lung) was 64.5 µM and the TGI (EKVX NSCLC) was 128 µM. The TGI (HCC-2998 colon) was 88.5 µM, the TGI (HCT-116 colon) was 122 µM and the TGI (HCT-15 colon) was 78.3 µM. The TGI (HL-60(TB) leukemia) was 35 µM, the TGI (HOP-18 NSCLC) was 131 µM and the TGI (HOP-62 NSCLC) was 121 µM. It also gave a TGI (HOP-92 NSCLC) of 98.9 µM, a TGI (HT29 colon) of 121 µM and a TGI (IGROV1 ovarian) of 95.7 µM. It also gave a TGI (K-562 leukemia) of over 94.6 µM, a TGI (KM12 colon) of 83.9 µM and a TGI (KM20L2 colon) of 113 µM. For the same molecule, the TGI (LOX IMVI melanoma) was over 75.7 µM, the TGI (M19-MEL melanoma) was 127 µM and the TGI (MALME-3M melanoma) was 69.5 µM. The TGI (MCF7 breast) was 102 µM, the TGI (MOLT-4 leukemia) was 75.5 µM and the TGI (NCI-H226 lung) was 60 µM. It also gave a TGI (NCI-H23 lung) of over 132 µM, a TGI (NCI-H460 lung) of 69.5 µM and a TGI (NCI-H522 lung) of 92.3 µM. It also gave a TGI (NCI/ADR-RES ovarian) of 94.2 µM, a TGI (OVCAR-3 ovarian) of 58.5 µM and a TGI (OVCAR-4 ovarian) of over 150 µM. It also gave a TGI (OVCAR-5 ovarian) of 101 µM, a TGI (OVCAR-8 ovarian) of 111 µM and a TGI (P388 leukemia) of 50.6 µM. The TGI (P388/ADR leukemia) was 83.6 µM, the TGI (RPMI-8226 leukemia) was 82.5 µM and the TGI (RXF 393 renal) was 91.9 µM. For the same molecule, the TGI (SF-268 CNS) was over 150 µM, the TGI (SF-295 CNS) was 104 µM and the TGI (SF-539 CNS) was 91.6 µM. It also gave a TGI (SK-MEL-2 melanoma) of 57.3 µM, a TGI (SK-MEL-28 melanoma) of over 150 µM and a TGI (SK-MEL-5 melanoma) of 80.8 µM. For the same molecule, the TGI (SK-OV-3 ovarian) was 115 µM, the TGI (SN12C renal) was 133 µM and the TGI (SN12K1 renal) was 112 µM. It also gave a TGI (SNB-19 CNS) of 150 µM, a TGI (SNB-75 CNS) of 106 µM and a TGI (SNB-78 CNS) of over 150 µM. It also gave a TGI (SW-620 colon) of over 127 µM, a TGI (U251 CNS) of over 141 µM and a TGI (UACC-257 melanoma) of over 84.4 µM. It also gave a TGI (UACC-62 melanoma) of 78.5 µM, a TGI (UO-31 renal) of 78.5 µM and a TGI (XF 498 CNS) of 59.2 µM.
